Reference: patent US20110217293A1, “Uses of morelloflavone” (priority 2008, published 2011)
Entries after “also recorded” stand apart in the source; their conditions may differ.

Tests used:
Lp-PLA2 = target: T1, Lp-PLA2 (Homo sapiens, UniProt Q13093); experiment: PLA2 enzyme activity assay, Lp-PLA2; assay type: biochemical; conditions: recombinant human Lp-PLA2, data not shown
T1 sequence (Q13093 22-441): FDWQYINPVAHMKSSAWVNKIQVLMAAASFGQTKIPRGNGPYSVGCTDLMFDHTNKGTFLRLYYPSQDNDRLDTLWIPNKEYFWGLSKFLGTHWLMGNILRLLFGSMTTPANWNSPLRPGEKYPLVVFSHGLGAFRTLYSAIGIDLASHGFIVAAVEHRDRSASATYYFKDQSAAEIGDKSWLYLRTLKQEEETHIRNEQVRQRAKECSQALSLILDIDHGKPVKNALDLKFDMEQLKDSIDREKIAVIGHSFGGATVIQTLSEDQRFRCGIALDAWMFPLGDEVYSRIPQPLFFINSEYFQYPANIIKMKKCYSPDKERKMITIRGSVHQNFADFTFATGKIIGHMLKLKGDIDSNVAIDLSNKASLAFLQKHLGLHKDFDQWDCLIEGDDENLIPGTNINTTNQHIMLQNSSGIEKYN
Description: Recombinant human sPLA2 isoforms, Group IB, Group IIA, Group V, and Lp-PLA2 were obtained from R&D Systems and Cayman Chemical Co. sPLA2 enzyme activities in the presence of various concentrations of morelloflavone or other inhibitors were determined using a commercially available assay system according to the manufacturer's instructions (Cayman Chemical Co.). Thioetheramide-1-palmitylthio-2-palmitoylamido-1,2-dideoxy-sn-glycero-3-phosphorylcholine (T-PC) and methyl arachidonyl fluorophosphonate (MAFP) were used as inhibitors of sPLA2 (IB, IIA, and V) and Lp-PLA2, respectively, per manufacturers' instructions.

[1] = system: vascular smooth muscle cells; experiment: DNA fragmentation (apoptosis) assay; assay type: cell-based
Description: (§1) Mouse vascular smooth muscle cells, isolated as described (13), were maintained in 231 media (Cascade Biologics, Portland, Oreg.) supplemented with SMGS (Cascade Biologics) in a humidified incubator at 37° C. with 5% CO2. Cells from passages 4-9 were used in all experiments. All experiments were performed in subconfluent, unsynchronized cells growing in SMGS except for the lamellipodium formation assay.
Vascular smooth muscle cells were seeded at 1×10^5 cells per well in 24-well culture plates, treated with morelloflavone, and subjected to DNA fragmentation assay, according to the manufacturer's instructions (Cell Death Detection ELISAPLUS, Roche). Briefly, the cells were treated with […] of morelloflavone for 24 hrs. The 1×10^5 cells were lysed, cleared by centrifugation, and transferred into streptavidin-coated plates. Anti-histone antibody conjugated to biotin and anti-nucleosomal-DNA-antibody conjugated to horseradish peroxidase were added. After incubation and washing, 2,2′-azino-bis-[3-ethylbenzthiazoline-6-sulfonic acid] (ABTS) substrate solution was added. The 5 absorbance rate at 405 nm against ABTS solution was measured with the reference wavelength of 490 nm.

[2] = system: vascular smooth muscle cells; experiment: Cell attachment; assay type: cell-based
[3] = system: vascular smooth muscle cells; experiment: Scratch wound cell migration assay; assay type: cell-based, mouse; conditions: for migration index: 18 hrs
Description: as §1
Vascular smooth muscle cells that had been grown to confluence in 6-well culture plates were scratched with a sterile […] pipette tip and exposed to various concentrations of morelloflavone. The cells were allowed to migrate onto the plastic surface for 18 hrs and photographed. A migration index was determined based on the number of cells that migrated onto 1 mm^2 free plastic surface, using the Image J software (NIH).

[4] = system: vascular smooth muscle cells; experiment: Lamellipodium formation assay; assay type: cell-based, mouse; design: effect on morphology of vascular smooth muscle cells: dose or concentration left out as unconfirmed; conditions: for lamellipodium index: 5% serum, 3 hrs
Description: as §1
The lamellipodium formation assay was performed as described (14). In brief, mouse vascular smooth muscle cells (serum-starved for 24 hrs) were seeded onto fibronectin-coated wells of chamber slides (CultureSlide, BD BioCoat Fibronectin) and incubated with various concentrations of morelloflavone (0, 1, and 10 mM) in the presence or absence of serum for 3 hrs at 37° C. Then, cells were fixed with 4% paraformaldehyde, permeabilized with 0.1% Triton X-100, stained with Alexa Fluor 594-Phallidin (Invitrogen-Molecular Probes) and DRAQ5 (Biostatus, Ltd, Leicestershire, UK), and viewed with the use of a Leica DM6000 confocal microscope. Lamellipodium indices were calculated as the number of lamellipodia divided by the total number of cells counted.

O=C1c2c(O)cc(O)cc2O[C@H](c2ccc(O)cc2)[C@H]1c1c(O)cc(O)c2c(=O)cc(-c3ccc(O)c(O)c3)oc12 [morelloflavone, 5,7, 4′, 5″, 7″, 3″, 4″-heptahydroxy-[3,8″]-flavonylflavanone]
inhibition of Lp-PLA2 (Lp-PLA2): did not inhibit
DNA fragmentation indices, trend with concentration ([1]; 0, 1, 10, 100 mM): decreased as morelloflavone concentrations increased
apoptosis / induction of DNA fragmentation ([1]; concentrations equal to or less than 100 mM, 24 hrs): did not induce DNA fragmentation; also recorded: does not cause apoptosis; also recorded: does not induce cytotoxicity
effect on cell attachment [2]: does not affect cell attachment
effect on vascular smooth muscle cell migration ([3]; 0-100 mM, effect from 1 mM (1 μM)): inhibited in a dose-dependent fashion; also recorded: profound effects on migration; also recorded: blocks
migration index ([3]; 1 mM morelloflavone): 487.6±36.9 cells/mm^2
migration index ([3]; 10 mM morelloflavone): 411.3±39.5 cells/mm^2
migration index ([3]; 100 mM morelloflavone): 191.86±32.8 cells/mm^2
lamellipodium index ([4]; 1 mM morelloflavone): 0.05±0.001
lamellipodium index ([4]; 10 mM morelloflavone): 0.033±0.006
effect on morphology of vascular smooth muscle cells ([4]; absence of serum, any concentration (0, 1)): did not change the morphology
effect on lamellipodium indices / formation ([4]; serum stimulated, 1-10 mM): significantly decreased lamellipodium indices in a dose-dependent fashion; also recorded: failed to increase lamellipodium indices; also recorded: blocks
